Common to all, as to assay type: cell-based, human
In one assay the test system is TIP60. Description: Western blot of total proteins, TIP60. The following applies: HL-60, 2 hours treatment, FIG. 10A. As for the experimental part: Whole-cell lysates from approximately 0.2×10^6 cells per each sample were separated on 12% SDS-PAGE gels and transferred to a nitrocellulose membrane. Immunoblots were stained overnight at 4° C. with the following primary antibodies: H2A.Z (1:2,000; Abcam ab4174), H2A.Z acetyl (K4+K7+K11) (1:2,000; Abcam ab18262) or TIP60 (1:1000; generous gift from Bruno Amati). All secondary horseradish peroxidase (HRP)-conjugated antibodies were diluted 1:5,000 and incubated for 1 hr at room temperature with TBST/5% BSA. Immuno-reactive proteins were detected using the Pierce® ECL system (Thermo Scientific #32106).
In general terms: In western blotting, separated proteins are transferred to a membrane and probed.

The next assay deals with HL-60 cells. The experiment in a line: nasRNA-seq, genome wide transcription inhibition upon DRB and ActD treatment. The settings on record: HL-60 released from double thymidine block, 2 hr, DRB 200 μM, ActD 0.8 μM; for average gene expression reduction: vs DMSO. As for the experimental part: Nascent RNA/DNA capture was performed using Click-iT Nascent RNA Capture Kit (ThermoFisher) according to the manufacturer's instructions with minor modifications. Briefly, 1. Labeling the cells with EU/EdU. 200 mM EU or 30 mM EdU stock solutions were added to the cells, to a final concentration 0.5 mM or 30 μM, respectively. 2. Incubation. The cells were incubated for 1 or 2 hours. 3. RNA/DNA isolation. The cells were harvested and the RNA/DNA were isolated and dissolved in 14 μL of H2O. 4. Biotinylation of RNA/DNA by Click reaction. Click-iT reaction cocktail (50 μL per reaction) was prepared accordingly to manufacturer's instructions: a mixture containing 1× Click-iT EU buffer; 2 mM CuSO4; 1 mM Biotin azide; 13.25 μL of the isolated RNA; 10 mM Click-iT reaction buffer additive 1; 12 mM Click-iT reaction buffer additive 2 was prepared. After adding each component, the reaction cocktail was gently mixed by vortexing. The addition of the Click-iT reaction buffer additive 1 stock initiates the click reaction between the EU-RNA/EdU-DNA and biotin azide. Afterwards the Click-iT® reaction buffer additive 2 is added and incubated for 30 minutes with gentle vortexing. 5. RNA/DNA precipitation. 1 μL of ULTRAPURE™ Glycogen, 55 μL of 7 M ammonium acetate, and 750 μL of chilled 100% ethanol were added to the click reaction, incubated at −70° C. for at least 30 minutes and after centrifugation the pellet was dissolved in 125 μL of H2O. 6. Binding biotinylated RNA/DNA to Dynabeads® MYONE™ Streptavidin Ti magnetic beads. The RNA/DNA binding reaction mixture included: 125 μL 2×Click-iT RNA binding buffer; 2 μL Ribonuclease Inhibitor or 2 μL of water for DNA; 125 μL of the isolated biotinylated RNA/DNA. The RNA binding reaction mixture was heated at 68-70° C. for 5 minutes and 50 μL of bead suspension added into the heated RNA binding reaction mixture. The tube containing the RNA/DNA binding reaction was incubated at r.t. for 30 min while gently vortexing to prevent the beads from settling. The beads were immobilized using the magnet and washed 5 times with 500 μL of Click-iT® reaction wash buffer 1 and 5 times with 500 μL of Click-iT® reaction wash buffer 2. Finally, the beads were resuspended in 50 μL of Click-iT reaction wash buffer 2 and the captured RNA immediately processed to cDNA synthesis. The captured DNA was released into 50 μL of boiling water and used in qPCR analyses.
Double Thymidine block (early S-phase block) was carried out as described. […] Synchrony was monitored by flow cytometry analysis of propidium iodide-stained cells using a LSRII flow cytometer (BD Biosciences) at the Harvard Stem Cell Institute/Beth Israel Deaconess Center flow cytometry facility. […]

For another assay, the system named is MYB SPEARs. The experiment in a line: qRT-PCR of MYB SPEARs. The following applies: HL-60, DRB and ActD, FIG. 10C. As for the experimental part: (§1) Total RNA isolation was carried out and all RNA samples used in this study were treated with DNase I (10 U of DNase I per 3 μg of total RNA; 37° C. for one hour; in the presence of RNase inhibitor). After DNase I treatment, RNA samples were extracted with acidic phenol (pH 4.3) to eliminate any remaining traces of DNA. cDNA syntheses were performed with Random Primers (Invitrogen) or gene-specific primers with Transcriptor Reverse Transcriptase (Roche Applied Science) according to the manufacturer's recommendation. cDNA was purified with a High Pure PCR Product Purification Kit (Roche Applied Science).
(§2) Sybr green reaction was performed using iQ Sybr Green supermix (Biorad, Hercules, CA) using the following parameters: 95° C. (10 min), 40 cycles of 95° C. (15 s) and 60° C. (1 min) 72° C. (1 min). TaqMan analysis was performed using Hotstart Probe One-step qRT-PCR master mix (USB) at the following conditions: 50° C. (10 min.), 95° C. (2 min.), and then 40 cycles of 95° C. (15 sec.) and 60° C. (60 sec.).

Another assay deals with c-MYC mRNA. The experiment in a line: qRT-PCR of c-MYC mRNA. The settings on record: HL-60 released from double thymidine block, 2 hrs; MG149 200 μM, TH1834 500 μM. As to the method: as §1, §2
Nascent RNA/DNA capture was performed using Click-iT Nascent RNA Capture Kit (ThermoFisher) according to the manufacturer's instructions with minor modifications. Briefly, 1. Labeling the cells with EU/EdU. 200 mM EU or 30 mM EdU stock solutions were added to the cells, to a final concentration 0.5 mM or 30 μM, respectively. 2. Incubation. The cells were incubated for 1 or 2 hours. 3. […]

The structures appear in SMILES notation. *1 amine or outer side, *2 acyl side, *3 side chain or, on linkers, in order; H or OH if unused. Where a SMILES comes first, the peptide text is derived from it. Bridges are numbered along the chain shown (N, C = ends). Roman numbers before positions name the chains, in order. [ ]: non-standard residue; d: D form. Actinocin(9to1) = Cc1c2oc3c(C)ccc(C(=O)[*:1])c3nc-2c(C(=O)[*:2])c(N)c1=O; NMeV = CN[C@H](C(=O)O)C(C)C; Sar = CNCC(=O)O

With `Cc1c2oc3c(C)ccc(C(=O)N[C@@H]4C(=O)N[C@H](C(C)C)C(=O)N5CCC[C@H]5C(=O)N(C)CC(=O)N(C)[C@@H](C(C)C)C(=O)O[C@@H]4C)c3nc-2c(C(=O)N[C@@H]2C(=O)N[C@H](C(C)C)C(=O)N3CCC[C@H]3C(=O)N(C)CC(=O)N(C)[C@@H](C(C)C)C(=O)O[C@@H]2C)c(N)c1=O` [ActD, Actinomycin D] (I: T[dV]P[Sar][NMeV] / II: T[dV]P[Sar][NMeV]; ester I:1-I:C, II:1-II:C; linker I:N-II:N via Actinocin(9to1)), the “overall global content of TIP60” value in the assay with TIP60 is “not affected”. In the assay on HL-60 cells, the “gene expression reduction ratio across distributions (treated/DMSO)” value came out at 0.21 and the “average gene expression reduction” value was found to be 79%. Also, the “MYB SPEARs level upon transcription inhibitors” value in the assay with MYB SPEARs is recorded as “positively affected”.
With `OC[C@H]1O[C@@H](n2cnc3cc(Cl)c(Cl)cc32)[C@H](O)[C@@H]1O` [DRB, 5,6-Dichlorobenzimidazole 1-β-D-ribofuranoside], the “overall global content of TIP60” value with TIP60 is “not affected”. Besides, in the assay with HL-60 cells, the “gene expression reduction ratio across distributions (treated/DMSO)” value was 0.45 and the “average gene expression reduction” value worked out at 55%. In addition, the “MYB SPEARs level upon transcription inhibitors” value in the assay with MYB SPEARs is given as “positively affected”.
As for `CCCCCCCc1ccc(CCc2cccc(O)c2C(=O)O)cc1` [MG149], in the assay with c-MYC mRNA, the “response of total c-MYC mRNA” value is reported as “downregulated”.
Take `O=C(O)Cn1nnc(-c2ccc(CN(CCCCOc3ccc(CN4CCCC4)cc3)CCc3ccccc3)cc2)n1` [TH1834]: the “response of total c-MYC mRNA” value in the assay with c-MYC mRNA is “downregulated”.
